Our source for the IC50 values is patent US9770452B2, “Quinoxaline derivatives as GPR6 modulators” (Takeda Pharmaceutical Company Limited, priority 2012, dated 2017).

Where a name gives a salt, the structure may show the parent alone.

This test deals with T1, GPR6 receptor (Homo sapiens, UniProt P46095).
T1 construct: expressed in transfected cells
T1 sequence (P46095 whole entry): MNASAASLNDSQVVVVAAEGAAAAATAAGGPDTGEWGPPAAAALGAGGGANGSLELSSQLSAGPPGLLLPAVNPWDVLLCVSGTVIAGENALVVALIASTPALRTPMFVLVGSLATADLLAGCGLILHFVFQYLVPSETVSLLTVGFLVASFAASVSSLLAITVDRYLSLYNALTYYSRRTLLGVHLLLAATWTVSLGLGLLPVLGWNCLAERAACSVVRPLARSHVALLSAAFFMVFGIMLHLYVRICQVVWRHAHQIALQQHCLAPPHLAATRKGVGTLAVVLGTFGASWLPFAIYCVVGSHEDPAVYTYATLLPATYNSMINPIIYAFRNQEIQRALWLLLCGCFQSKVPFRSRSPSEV
Put plainly: Inhibition of cAMP Activity of GPR6 In Vitro Assay (CHO-K1 cells, HTRF cAMP). The class given is cell-based. As to conditions: compounds of Compound Table 1; inhibition of constitutive cAMP activity of GPR6 expressed in CHO-K1 cells; approximate IC50; read-out: IC50. The procedure, abridged:
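CHO-K1 cells with doxycycline-induced (1 μg/ml, 20 h) GPR6 treated with compounds 45 min at 37 °C in Ringer's buffer (pH 7.4) with 0.5% fatty acid free BSA. Constitutive cAMP measured by Lance HTRF Ultra cAMP; IC50 from four-parameter logistic fit.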
For orientation: Time-resolved FRET reads energy transfer from a long-lived donor to a nearby acceptor.
As usually defined, the IC50 is the point on the concentration scale where inhibition reaches its midpoint. “3-(4-((4-chloro-2-oxopyridin-1(2H)-yl)methyl)piperidin-1-yl)-2-(cyclopropylamino)quinoxaline-6-carbonitrile [Cpd 526]”: the 50% inhibitory concentration (IC50) worked out at 670 nM.

With “3-(4-((2-cyanophenyl)sulfonyl)piperazin-1-yl)-2-(cyclopropylamino)quinoxaline-6-carbonitrile, 2,2,2-trifluoroacetic acid salt [Cpd 252]”, the IC50 came to 2540 nM.

On to “N-cyclopropyl-3-(4-(4-(methylthio)phenoxy)piperidin-1-yl)pyrido[3,4-b]pyrazin-2-amine, 2,2,2-trifluoroacetic acid salt [Cpd 600]”, for which the half-inhibitory concentration (IC50) came out at 20 nM.

Turning to “mixture of N-cyclopropyl-3-(4-(2,5-dichlorobenzyl)piperazin-1-yl)-7-methoxyquinoxalin-2-amine, 2,2,2-trifluoroacetic acid salt and N-cyclopropyl-3-(4-(2,5-dichlorobenzyl)piperazin-1-yl)-7-methoxyquinoxalin-2-amine, 2,2,2-trifluoroacetic acid salt [Cpd 47]”, the IC50 worked out at 3360 nM.

As for “3-(1-(2-(cyclopropylamino)pyrido[3,4-b]pyrazin-3-yl)piperidine-4-carbonyl)-4-fluorobenzonitrile, 2,2,2-trifluoroacetic acid salt [Cpd 587]”, the IC50 came out at 78 nM.

Turning to “(2-chloro-4-fluorophenyl)(4-(2-(cyclopropylamino)pyrido[3,4-b]pyrazin-3-yl)piperazin-1-yl)methanone, 2,2,2-trifluoroacetic acid salt [Cpd 363]”, the IC50 is 230 nM.

On to “3-(4-(4-chloro-2-fluorophenoxy)piperidin-1-yl)-N-isopropylpyrazino[2,3-d]pyridazin-2-amine, 2,2,2-trifluoroacetic acid salt [Cpd 643]”, for which the half-inhibitory concentration (IC50) was 15 nM.

Regarding `N#Cc1ccc2nc(NC3CC3)c(N3CCC(C(F)c4ccc(F)cc4F)CC3)nc2c1` (centres unmarked) [Cpd 481], the 50% inhibitory concentration (IC50) was found to be 24 nM.

As to “2-(cyclopropylamino)-3-(4-(2,5-difluorobenzyl)piperazin-1-yl)quinoxaline-6-carbonitrile, 2,2,2-trifluoroacetic acid salt [Cpd 257]”, the half-inhibitory concentration (IC50) amounted to 310 nM.

With “3-(1-(7-bromo-2-(cyclopropylamino)pyrido[3,4-b]pyrazin-3-yl)piperidine-4-carbonyl)-4-fluorobenzonitrile [Cpd 602]”, the half-inhibitory concentration (IC50) came to 146 nM.

Regarding “3-(4-(2,4-difluorobenzyl)piperidin-1-yl)-2-((2-methoxyethyl)amino)quinoxaline-6-carbonitrile [Cpd 518]”, the IC50 was determined as 24 nM.

`Clc1ccc(Cl)c(CN2CCN(c3nc4ccc(Br)cc4nc3NC3CC3)CC2)c1` [Cpd 45, 7-bromo-N-cyclopropyl-3-(4-(2,5-dichlorobenzyl)piperazin-1-yl)quinoxalin-2-amine, 2,2,2-trifluoroacetic acid salt]: the concentration for half-maximal inhibition (IC50) amounted to 2340 nM.

In the case of “(4-chlorophenyl)(4-(2-(cyclopropylamino)pyrido[3,4-b]pyrazin-3-yl)piperazin-1-yl)methanone [Cpd 263]”, the IC50 is 120 nM.

As for “3-(4-(5-cyano-2-(dimethylcarbamoyl)benzoyl)piperidin-1-yl)-2-(cyclopropylamino)-N,N-dimethylpyrido[3,4-b]pyrazine-7-carboxamide [Cpd 596]”, the IC50 was 26 nM.

On to “2-(4-(2,4-difluorobenzyl)piperidin-1-yl)-N-(2,2-difluoroethyl)pyrido[3,4-b]pyrazin-3-amine [Cpd 428]”, for which the IC50 stood at 20 nM.

Take `Clc1ccc(Cl)c(CN2CCN(c3nc4cc(Br)ccc4nc3NC3CC3)CC2)c1` [Cpd 46, 6-bromo-N-cyclopropyl-3-(4-(2,5-dichlorobenzyl)piperazin-1-yl)quinoxalin-2-amine, 2,2,2-trifluoroacetic acid salt]: the concentration for half-maximal inhibition (IC50) came to 4820 nM.

As for “(1-(2-(cyclopropylamino)pyrido[3,4-b]pyrazin-3-yl)piperidin-4-yl)(3-fluorophenyl)methanone, 2,2,2-trifluoroacetic acid salt [Cpd 568]”, the IC50 came to 2180 nM.

On to “4-((1-(2-(cyclopropylamino)pyrido[3,4-b]pyrazin-3-yl)piperidin-4-yl)oxy)-N,N-dimethylbenzamide, 2,2,2-trifluoroacetic acid salt [Cpd 588]”, for which the concentration for half-maximal inhibition (IC50) worked out at 2740 nM.

As for “2-(cyclopropylamino)-3-(4-(2-fluoro-4-methoxybenzyl)piperazin-1-yl)-N,N-dimethylpyrido[3,4-b]pyrazine-7-carboxamide, 2,2,2-trifluoroacetic acid salt [Cpd 614]”, the IC50 is 66 nM.

As to “2-(cyclopropylamino)-3-(4-(2-fluoro-4-methoxybenzyl)piperazin-1-yl)pyrido[3,4-b]pyrazine-5-carbonitrile, 2,2,2-trifluoroacetic acid salt [Cpd 613]”, the 50% inhibitory concentration (IC50) was 92 nM.

In the case of “N-cyclopropyl-3-(4-((2,4-difluorophenyl)fluoromethyl)piperidin-1-yl)-7-methylpyrido[3,4-b]pyrazin-2-amine, 2,2,2-trifluoroacetic acid salt [Cpd 488]”, the half-inhibitory concentration (IC50) was found to be 29 nM.

With `N#Cc1cccc(CN2CCN(c3nc4ccccc4nc3NC3CC3)CC2)c1` [Cpd 95, 3-((4-(3-(cyclopropylamino)quinoxalin-2-yl)piperazin-1-yl)methyl)benzonitrile, 2,2,2-trifluoroacetic acid salt], the IC50 was 22200 nM.

In the case of “3-(4-(3-chlorophenoxy)piperidin-1-yl)-N-cyclopropylpyrido[3,4-b]pyrazin-2-amine, 2,2,2-trifluoroacetic acid salt [Cpd 426]”, the concentration for half-maximal inhibition (IC50) was determined as 27 nM.

On to `Clc1ccc(Cl)c(CN2CCN(c3nc4ccccc4nc3NCC3CC3)CC2)c1` [Cpd 42, N-(cyclopropylmethyl)-3-(4-(2,5-dichlorobenzyl)piperazin-1-yl)quinoxalin-2-amine, 2,2,2-trifluoroacetic acid salt], for which the IC50 was determined as 3160 nM.

For “2-(cyclobutylamino)-3-(4-(2,5-dichlorobenzyl)piperazin-1-yl)quinoxaline-6-carbonitrile, 2,2,2-trifluoroacetic acid salt [Cpd 336]”, the 50% inhibitory concentration (IC50) worked out at 960 nM.

For “N-cyclopropyl-3-(4-(4-fluorobenzyl)piperazin-1-yl)pyrido[3,4-b]pyrazin-2-amine, 2,2,2-trifluoroacetic acid salt [Cpd 291]”, the half-maximal inhibitory concentration (IC50) came out at 140 nM.

For the compound “2-(cyclopropylamino)-3-(4-(m-tolylsulfonyl)piperazin-1-yl)quinoxaline-6-carbonitrile [Cpd 239]”, the half-inhibitory concentration (IC50) is 4740 nM.

For “3-fluoro-4-((1-(3-(isopropylamino)pyrazino[2,3-d]pyridazin-2-yl)piperidin-4-yl)oxy)benzonitrile, 2,2,2-trifluoroacetic acid salt [Cpd 639]”, the concentration for half-maximal inhibition (IC50) was determined as 30 nM.

Take “(4-(2-(cyclopropylamino)pyrido[3,4-b]pyrazin-3-yl)piperazin-1-yl)(4-(difluoromethyl)phenyl)methanone, 2,2,2-trifluoroacetic acid salt [Cpd 289]”: the half-maximal inhibitory concentration (IC50) is 270 nM.

For “3-(4-(2-fluoro-4-methoxyphenoxy)piperidin-1-yl)-N-isopropylpyrido[3,4-b]pyrazin-2-amine, 2,2,2-trifluoroacetic acid salt [Cpd 616]”, the IC50 came to 939 nM.

As for “azetidin-1-yl(2-(cyclopropylamino)-3-(4-(2-fluoro-4-methoxyphenoxy)piperidin-1-yl)pyrido[3,4-b]pyrazin-5-yl)methanone, 2,2,2-trifluoroacetic acid salt [Cpd 610]”, the IC50 stood at 1570 nM.

Regarding “(4-bromo-3-fluorophenyl)(4-(3-(cyclopropylamino)-7-fluoroquinoxalin-2-yl)piperazin-1-yl)methanone [Cpd 247]”, the half-inhibitory concentration (IC50) was found to be 1490 nM.

For the compound `Cc1ccc(Nc2nc3ccccc3nc2N2CCN(Cc3cccc(Cl)c3)CC2)cc1` [Cpd 30, 3-(4-(3-chlorobenzyl)piperazin-1-yl)-N-(p-tolyl)quinoxalin-2-amine, 2,2,2-trifluoroacetic acid salt], the IC50 came out at 26200 nM.

With “2-(4-(2,4-difluorophenoxy)piperidin-1-yl)-N-isopropylpyrido[3,4-b]pyrazin-3-amine [Cpd 656]”, the half-maximal inhibitory concentration (IC50) was determined as 14 nM.

As for “(3-bromo-4-methylphenyl)(4-(3-(cyclopropylamino)quinoxalin-2-yl)piperazin-1-yl)methanone, 2,2,2-trifluoroacetic acid salt [Cpd 154]”, the IC50 amounted to 720 nM.

As to “3-(4-(2-fluoro-4-methoxyphenoxy)piperidin-1-yl)-N-isopropylpyrido[3,4-b]pyrazin-2-amine, 2,2,2-trifluoroacetic acid salt [Cpd 617]”, the IC50 was 54 nM.

As for “(4-chloro-3-methylphenyl)(4-(3-(pyridin-3-ylamino)quinoxalin-2-yl)piperazin-1-yl)methanone, 2,2,2-trifluoroacetic acid salt [Cpd 230]”, the IC50 is 800 nM.

For the compound “N-cyclopropyl-3-(4-((4-fluorophenyl)sulfonyl)piperidin-1-yl)-7-methylpyrido[3,4-b]pyrazin-2-amine 2,2,2-trifluoroacetate [Cpd 654]”, the half-maximal inhibitory concentration (IC50) was determined as 30 nM.

With “3-(4-(2,4-difluorobenzyl)piperazin-1-yl)-2-(isopropylamino)-N,N-dimethylpyrido[3,4-b]pyrazine-7-carboxamide, 2,2,2-trifluoroacetic acid salt [Cpd 634]”, the IC50 worked out at 6 nM.

As to “(2-bromopyridin-3-yl)(1-(2-(cyclopropylamino)pyrido[3,4-b]pyrazin-3-yl)piperidin-4-yl)methanone, 2,2,2-trifluoroacetic acid salt [Cpd 586]”, the IC50 came out at 2290 nM.

“N-cyclopropyl-3-(4-(4-ethoxyphenoxy)piperidin-1-yl)pyrido[3,4-b]pyrazin-2-amine, 2,2,2-trifluoroacetic acid salt [Cpd 601]”: the half-inhibitory concentration (IC50) was found to be 22 nM.
